Reference: patent US20240109900A1, “AZABICYCLIC SHP2 INHIBITORS” (IRBM S.P.A., priority 2021, published 2024)
Like-named read-outs stand apart in the source and are kept apart here.

Legend:
[1] = system: ERK phosphorylation in KYSE-520 cells; assay: Phospho-ERK cellular assay; type: cell-based; details: KYSE-520 cells, 2 h at 37° C., phospho-ERK1/2 (Thr202/Tyr204) TR-FRET, read-out: PERK IC50
Procedure, shortened: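 TR-FRET read-out of ERK1/2 Thr202/Tyr204 phosphorylation was taken after overnight antibody incubation at room temperature. Before that, KYSE-520 cells were treated 2 h at 37 °C with compound dilutions and lysed 30 min. Percent inhibition relative to vehicle and cell-free wells was fitted four-parametrically to give IC50.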

[2] = target: SHP-2 enzyme (Met1-Leu525) (Homo sapiens (Human), UniProt Q06124); assay: SHP2 inhibition enzymatic assay; type: biochemical; details: 0.5 nM SHP-2 activated by 500 nM IRS1 peptide, 75 μM DiFMUP substrate; read-out: SHP2wt-IC50
Procedure, shortened: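 Compounds were preincubated 30 min with 0.5 nM SHP-2 (Met1-Leu525) plus 500 nM IRS1 activating peptide (pH 7.2 HEPES, 5 mM DTT), then 75 μM DiFMUP substrate reacted 30 min at room temperature. After bpV quench, DiFMUP fluorescence gave % inhibition; four-parameter logistic fit yielded IC50.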

SHP-2 enzyme (Met1-Leu525), sequence (Q06124 1-525): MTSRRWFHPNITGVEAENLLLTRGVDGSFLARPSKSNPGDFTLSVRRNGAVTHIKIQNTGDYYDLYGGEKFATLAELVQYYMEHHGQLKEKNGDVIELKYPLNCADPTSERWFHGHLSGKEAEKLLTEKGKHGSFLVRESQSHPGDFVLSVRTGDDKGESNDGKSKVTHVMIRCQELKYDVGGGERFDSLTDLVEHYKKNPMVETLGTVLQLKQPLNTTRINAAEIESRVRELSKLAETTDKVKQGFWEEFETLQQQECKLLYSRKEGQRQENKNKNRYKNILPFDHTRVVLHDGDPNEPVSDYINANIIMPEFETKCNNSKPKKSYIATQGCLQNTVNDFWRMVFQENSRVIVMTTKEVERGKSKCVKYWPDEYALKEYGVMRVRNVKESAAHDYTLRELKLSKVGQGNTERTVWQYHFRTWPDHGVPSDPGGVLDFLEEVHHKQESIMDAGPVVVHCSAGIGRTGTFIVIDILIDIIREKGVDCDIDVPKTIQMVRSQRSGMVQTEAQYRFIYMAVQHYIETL

| SMILES | IC50 ([1]; Homo sapiens, KYSE-520, 2 h) [nM] | IC50 [2] [nM] | IC50 [1] [nM] |
| --- | --- | --- | --- |
| Cc1c(-c2n[nH]c3nc(N4CC[C@@H]5[C@H](C4)[C@@]5(CN)c4ccccc4F)cnc23)ccc2nn(C)nc12 [Example 205, ((1S,6R,7R)-3-(3-(2,4-dimethyl-2H-benzo[d][1,2,3]triazol-5-yl)-1H-pyrazolo[3,4-b]pyrazin-6-yl)-7-(2-fluorophenyl)-3-azabicyclo[4.1.0]heptan-7-yl)methanamine] | < 1000 | < 500 |  |
| CNc1nccc(-c2n[nH]c3nc(N4CCC5C(C4)C5(CN)c4cc(C)on4)cnc23)c1Cl (stereo not shown) [Example 17, 4-(6-(7-(aminomethyl)-7-(5-methylisoxazol-3-yl)-3-azabicyclo[4.1.0]heptan-3-yl)-1H-pyrazolo[3,4-b]pyrazin-3-yl)-3-chloro-N-methylpyridin-2-amine] | < 1000 | < 500 |  |
| Cn1cnc2ccc(-c3ccc4nc(N5CC[C@@H]6[C@H](C5)[C@@]6(CN)c5cc(F)ccc5F)cnc4n3)cc21 [Example 527, ((1S,6R,7R)-7-(2,5-difluorophenyl)-3-(6-(1-methyl-1H-benzo[d]imidazol-6-yl)pyrido[2,3-b]pyrazin-2-yl)-3-azabicyclo[4.1.0]heptan-7-yl)methanamine] | 1000 to 5000 | < 500 |  |
| CN(C)C(=O)c1ccc(-c2n[nH]c3nc(N4CC[C@@H]5[C@H](C4)[C@@]5(CN)c4ccccc4F)cnc23)c2cccnc12 [Example 212, 5-(6-((1S,6R,7R)-7-(aminomethyl)-7-(2-fluorophenyl)-3-azabicyclo[4.1.0]heptan-3-yl)-1H-pyrazolo[3,4-b]pyrazin-3-yl)-N,N-dimethylquinoline-8-carboxamide] | > 5000 | < 500 |  |
| NC[C@]1(c2ccccc2F)[C@@H]2CCN(c3cnc4c(-c5ccc(CO)c6ncccc56)n[nH]c4n3)C[C@@H]21 [Example 159, (5-(6-((1S,6R,7R)-7-(aminomethyl)-7-(2-fluorophenyl)-3-azabicyclo[4.1.0]heptan-3-yl)-1H-pyrazolo[3,4-b]pyrazin-3-yl)quinolin-8-yl)methanol] | < 1000 | < 500 |  |
| Cc1cccc([C@@]2(CN)[C@@H]3CN(c4cnc5c(-c6ccc7nn(C)cc7c6Cl)n[nH]c5n4)C[C@@H]32)n1 [Example 496, ((1R,5S,6r)-3-(3-(4-chloro-2-methyl-2H-indazol-5-yl)-1H-pyrazolo[3,4-b]pyrazin-6-yl)-6-(6-methylpyridin-2-yl)-3-azabicyclo[3.1.0]hexan-6-yl)methanamine] | < 1000 | < 500 |  |
| NC[C@]1(c2ccccc2F)[C@@H]2CCN(c3cc(=O)n4cc(Sc5ccnc(N)c5Cl)ccc4n3)C[C@@H]21 [Example 410, 7-((2-amino-3-chloropyridin-4-yl)thio)-2-((1S,6R,7R)-7-(aminomethyl)-7-(2-fluorophenyl)-3-azabicyclo[4.1.0]heptan-3-yl)-4H-pyrido[1,2-a]pyrimidin-4-one] | > 5000 | 500 to 3000 |  |
| NC[C@]1(c2ccccc2F)[C@@H]2CCN(c3cnc4c(-c5ccc6c(=O)[nH]ccc6c5)n[nH]c4n3)C[C@@H]21 [Example 240, 6-(6-((1S,6R,7R)-7-(aminomethyl)-7-(2-fluorophenyl)-3-azabicyclo[4.1.0]heptan-3-yl)-1H-pyrazolo[3,4-b]pyrazin-3-yl)isoquinolin-1(2H)-one] | < 1000 | < 500 |  |
| Cc1cc(C2(CN)C3CCN(c4cnc5c(-c6ccnc7c6OC[C@@H]6CCCN76)n[nH]c5n4)CC32)no1 (stereo partly drawn) [Example 29, (7-(5-methylisoxazol-3-yl)-3-(3-((S)-6a,7,8,9-tetrahydro-6H-pyrido[3,2-b]pyrrolo[1,2-d][1,4]oxazin-4-yl)-1H-pyrazolo[3,4-b]pyrazin-6-yl)-3-azabicyclo[4.1.0]heptan-7-yl)methanamine] | > 5000 | 500 to 3000 |  |
| NC[C@]1(c2ccccc2F)[C@@H]2CCN(c3cnc4c(-c5ccnc(-c6cncnc6)c5Cl)n[nH]c4n3)C[C@@H]21 [Example 284, ((1S,6R,7R)-3-(3-(3-chloro-2-(pyrimidin-5-yl)pyridin-4-yl)-1H-pyrazolo[3,4-b]pyrazin-6-yl)-7-(2-fluorophenyl)-3-azabicyclo[4.1.0]heptan-7-yl)methanamine] | < 1000 | < 500 |  |
| COc1c(F)cc(-c2n[nH]c3nc(N4CC[C@@H]5[C@H](C4)[C@@]5(CN)c4ccccc4F)cnc23)c2cccnc12 [Example 225, ((1S,6R,7R)-3-(3-(7-fluoro-8-methoxyquinolin-5-yl)-1H-pyrazolo[3,4-b]pyrazin-6-yl)-7-(2-fluorophenyl)-3-azabicyclo[4.1.0]heptan-7-yl)methanamine] | < 1000 | < 500 |  |

Further lines, results first:

| IC50 ([1]; Homo sapiens, KYSE-520, 2 h) [nM] | IC50 [2] [nM] | IC50 [1] [nM] | SMILES |
| --- | --- | --- | --- |
| < 1000 | < 500 |  | Cn1cc2c(Cl)c(-c3n[nH]c4nc(N5C[C@@H]6[C@H](C5)[C@@]6(CN)c5nccs5)cnc34)ccc2n1 [Example 486, ((1R,5S,6r)-3-(3-(4-chloro-2-methyl-2H-indazol-5-yl)-1H-pyrazolo[3,4-b]pyrazin-6-yl)-6-(thiazol-2-yl)-3-azabicyclo[3.1.0]hexan-6-yl)methanamine] |
| < 1000 | < 500 |  | NC[C@]1(c2ccccc2F)[C@@H]2CCN(c3cnc4c(-c5ccc6c(c5)CCC(=O)N6)n[nH]c4n3)C[C@@H]21 [Example 238, 6-(6-((1S,6R,7R)-7-(aminomethyl)-7-(2-fluorophenyl)-3-azabicyclo[4.1.0]heptan-3-yl)-1H-pyrazolo[3,4-b]pyrazin-3-yl)-3,4-dihydroquinolin-2(1H)-one] |
| < 1000 | < 500 |  | Cc1nc2c(Cl)c(-c3n[nH]c4nc(N5CC[C@@H]6[C@H](C5)[C@@]6(CN)c5ccccc5F)cnc34)ccc2n1C [Example 349, ((1S,6R,7R)-3-(3-(4-chloro-1,2-dimethyl-1H-benzo[d]imidazol-5-yl)-1H-pyrazolo[3,4-b]pyrazin-6-yl)-7-(2-fluorophenyl)-3-azabicyclo[4.1.0]heptan-7-yl)methanamine] |
| < 1000 | < 500 |  | Cc1cc(C2(CN)C3CCN(c4cnc5c(-c6cccc7c6CNC7=O)n[nH]c5n4)CC32)no1 (stereo not shown) [Example 19, 4-(6-(7-(aminomethyl)-7-(5-methylisoxazol-3-yl)-3-azabicyclo[4.1.0]heptan-3-yl)-1H-pyrazolo[3,4-b]pyrazin-3-yl)isoindolin-1-one] |
| < 1000 | < 500 |  | NCC1(c2ccccc2F)C2CCN(c3cnc4c(-c5cccc(Cl)c5Cl)n[nH]c4n3)CC21 (stereo not shown) [Example 3, (3-(3-(2,3-dichlorophenyl)-1H-pyrazolo[3,4-b]pyrazin-6-yl)-7-(2-fluorophenyl)-3-azabicyclo[4.1.0]heptan-7-yl)methanamine] |
| < 1000 | < 500 |  | Cn1ccc(C2(CN)C3CCN(c4cnc5c(-c6cccc(Cl)c6Cl)n[nH]c5n4)CC32)n1 (stereo not shown) [Example 98, (3-(3-(2,3-dichlorophenyl)-1H-pyrazolo[3,4-b]pyrazin-6-yl)-7-(1-methyl-1H-pyrazol-3-yl)-3-azabicyclo[4.1.0]heptan-7-yl)methanamine] |
| < 1000 | < 500 |  | Cc1csc(C2(CN)C3CCN(c4nc5nc(Sc6cccnc6C(F)(F)F)cnc5[nH]4)CC32)n1 (stereo not shown) [Example 67, (7-(4-methylthiazol-2-yl)-3-(5-((2-(trifluoromethyl)pyridin-3-yl)thio)-1H-imidazo[4,5-b]pyrazin-2-yl)-3-azabicyclo[4.1.0]heptan-7-yl)methanamine] |
| < 1000 | < 500 |  | Cc1nccc(Sc2ncc(N3CC[C@@H]4[C@H](C3)[C@@]4(CN)c3cc(F)ccc3F)nc2N)c1F [Example 431, 6-((1S,6R,7R)-7-(aminomethyl)-7-(2,5-difluorophenyl)-3-azabicyclo[4.1.0]heptan-3-yl)-3-((3-fluoro-2-methylpyridin-4-yl)thio)pyrazin-2-amine] |
| < 1000 | < 500 |  | Cc1cc([C@@]2(CN)[C@@H]3CCN(c4cnc5c(-c6ccc(C(F)(F)F)c7ncccc67)n[nH]c5n4)C[C@@H]32)no1 [Example 43, ((1S,6R,7S)-7-(5-methylisoxazol-3-yl)-3-(3-(8-(trifluoromethyl)quinolin-5-yl)-1H-pyrazolo[3,4-b]pyrazin-6-yl)-3-azabicyclo[4.1.0]heptan-7-yl)methanamine] |
| > 5000 | < 500 |  | NCC1(c2ccccc2F)[C@@H]2CCN(c3cnc(Sc4ccnc(-n5cccn5)c4Cl)cn3)CC[C@@H]21 (stereo partly drawn) [Example 403, ((1R,7S)-4-(5-((3-chloro-2-(1H-pyrazol-1-yl)pyridin-4-yl)thio)pyrazin-2-yl)-8-(2-fluorophenyl)-4-azabicyclo[5.1.0]octan-8-yl)methanamine] |
| < 1000 | < 500 |  | Cc1nccc(Sc2ccc3nc(N4CC[C@@H]5[C@H](C4)[C@@]5(CN)c4cc(F)ccc4F)cnc3n2)c1F [Example 426, ((1S,6R,7R)-7-(2,5-difluorophenyl)-3-(6-((3-fluoro-2-methylpyridin-4-yl)thio)pyrido[2,3-b]pyrazin-2-yl)-3-azabicyclo[4.1.0]heptan-7-yl)methanamine] |
|  | < 500 | < 1000 | Cc1csc([C@@]2(CN)[C@@H]3CN(c4cnc5c(-c6ccc(C(N)=O)cc6Cl)n[nH]c5n4)C[C@@H]32)n1 [Example 512] |
